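Growth conditions: 96-well plates. Treatment: test compound, 48 hours, 5 concentrations. Analysis: linear interpolation between bracketing concentrations; unreached endpoints set to highest concentration. GI50: concentration for 50% inhibition of growth.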 Active and inactive are the calls of the source. No stated cut-off is given here; in the data, active = GI50 up to about 1.1 µM and inactive = higher.
What was measured:
Test in all cases: NCI tumour cell line growth inhibition, 48 h
LOX IMVI = tested on: LOX IMVI
HCC 2998 = tested on: HCC 2998
SK-MEL-28 = tested on: SK-MEL-28
K562 = tested on: K562
A549 = tested on: A549
DMS-273 = tested on: DMS-273
KM12 = tested on: KM12
SNB-78 = tested on: SNB-78
OVCAR-4 = tested on: OVCAR-4
NCI-H23 = tested on: NCI-H23
U-251 = tested on: U-251
HCT-116 = tested on: HCT-116
UO-31 = tested on: UO-31
HOP-18 = tested on: HOP-18
OVCAR-5 = tested on: OVCAR-5
M19-MEL = tested on: M19-MEL
EKVX = tested on: EKVX
TK-10 = tested on: TK-10
DMS-114 = tested on: DMS-114
SF-268 = tested on: SF-268
SK-MEL-2 = tested on: SK-MEL-2
RPMI-8226 = tested on: RPMI-8226
SR = tested on: SR
OVCAR-8 = tested on: OVCAR-8
UACC-257 = tested on: UACC-257
NCI-H460 = tested on: NCI-H460
MOLT-4 = tested on: MOLT-4
OVCAR-3 = tested on: OVCAR-3
COLO 205 = tested on: COLO 205
HOP-62 = tested on: HOP-62
CCRF-CEM = tested on: CCRF-CEM
SK-MEL-5 = tested on: SK-MEL-5
HT-29 = tested on: HT-29
HL-60 = tested on: HL-60
SW-620 = tested on: SW-620
SF-539 = tested on: SF-539
ACHN = tested on: ACHN
IGROV-1 = tested on: IGROV-1
HCT-15 = tested on: HCT-15
KM-20L2 = tested on: KM-20L2
UACC-62 = tested on: UACC-62
SNB-19 = tested on: SNB-19
SNB-75 = tested on: SNB-75
HOP-92 = tested on: HOP-92
SN12C = tested on: SN12C
LXFL 529 = tested on: LXFL 529
RXF 393 = tested on: RXF 393
M14 = tested on: M14
CAKI-1 = tested on: CAKI-1
NCI-H522 = tested on: NCI-H522
A498 = tested on: A498
Malme-3M = tested on: Malme-3M
SK-OV-3 = tested on: SK-OV-3
786-0 = tested on: 786-0

Measured: GI50

Nc1cc(-c2ccccc2)nn1-c1nsc2ccccc12
inactive: LOX IMVI 97.5 µM | HCC 2998 > 100 µM | SK-MEL-28 98.4 µM | K562 40.4 µM | A549 > 100 µM | DMS-273 80.7 µM | KM12 > 100 µM | SNB-78 68.1 µM | OVCAR-4 > 100 µM | NCI-H23 > 100 µM | U-251 54.2 µM | HCT-116 73.3 µM | UO-31 > 100 µM | OVCAR-5 > 100 µM | M19-MEL > 100 µM | EKVX 47.8 µM | TK-10 > 100 µM | DMS-114 > 100 µM | SF-268 58.9 µM | SK-MEL-2 > 100 µM | RPMI-8226 76.9 µM | SR 53.2 µM | OVCAR-8 92.9 µM | UACC-257 > 100 µM | NCI-H460 60.8 µM | MOLT-4 55.1 µM | OVCAR-3 94.2 µM | COLO 205 > 100 µM | HOP-62 36.3 µM | CCRF-CEM 21.6 µM | SK-MEL-5 > 100 µM | HT-29 91.2 µM | HL-60 61.8 µM | SW-620 > 100 µM | SF-539 > 100 µM | ACHN > 100 µM | IGROV-1 83.9 µM | KM-20L2 > 100 µM | UACC-62 > 100 µM | SNB-19 > 100 µM | SNB-75 19.7 µM | HOP-92 63.4 µM | SN12C 99.8 µM | LXFL 529 > 100 µM | RXF 393 14.4 µM | M14 > 100 µM
95.3 µM: HCT-15
active: HOP-18 0.573 µM

O=C1OC(c2ccccc2)=N/C1=C\c1c(O)cc(O)cc1O
inactive: LOX IMVI 78.3 µM | SK-MEL-28 > 100 µM | K562 32.4 µM | A549 > 100 µM | DMS-273 94.2 µM | CAKI-1 > 100 µM | KM12 > 100 µM | SNB-78 > 100 µM | OVCAR-4 > 100 µM | NCI-H23 > 100 µM | NCI-H522 47.2 µM | U-251 > 100 µM | HCT-116 96.6 µM | UO-31 > 100 µM | HOP-18 > 100 µM | OVCAR-5 > 100 µM | M19-MEL 83.6 µM | EKVX > 100 µM | TK-10 > 100 µM | DMS-114 > 100 µM | SF-268 99.5 µM | A498 > 100 µM | SK-MEL-2 > 100 µM | RPMI-8226 > 100 µM | OVCAR-8 > 100 µM | UACC-257 > 100 µM | Malme-3M > 100 µM | MOLT-4 > 100 µM | SK-OV-3 > 100 µM | OVCAR-3 > 100 µM | COLO 205 > 100 µM | CCRF-CEM > 100 µM | SK-MEL-5 > 100 µM | 786-0 > 100 µM | HT-29 > 100 µM | SW-620 > 100 µM | SF-539 > 100 µM | ACHN 53.2 µM | IGROV-1 > 100 µM | KM-20L2 > 100 µM | UACC-62 27.9 µM | SNB-19 > 100 µM | SNB-75 > 100 µM | HOP-92 > 100 µM | SN12C > 100 µM | LXFL 529 41 µM | RXF 393 > 100 µM | M14 60.3 µM
38 µM: HCT-15

— ChEMBL document CHEMBL1201862, “PubChem BioAssay data set” (2004)
